Columns and labels:
[1] = tested on: human liver cancer cells Bel-7402 transplanted tumor; type: in vivo
From the text: Name and lot number: YHHU-744, a white powder, lot No.: No. c001471-106; YHHU-755, a white powder, lot No.: No. c001471-102; YHHU-756, a white powder, lot No.: No. c00147-106; YHHU-759, a white powder, lot No.: No. c001471-102; YHHU-776, a white powder, lot No.: No. c001471-107. Sorafenib was used as a positive control.
Formulation: YHHU-744, YHHU-755, YHHU-756, YHHU-759, YHHU-776 and the positive control were each diluted with 0.1% Tween-80 and distilled water to a desired concentration.
BALB/cA nude mice, 6-7 weeks old, ♀, were purchased from Shanghai SLAC Laboratory Animal Co. LTD. Certificate No.: SCXK (Shanghai) 2007-0005. Habitat: SPF level.
Human liver cancer cells Bel-7402 were inoculated on nude mice subcutaneously. After the tumor grew up to 300-450 mm^3, animals were grouped randomly (d0). The tumor volume was measured 2-3 times each week and the weights of mice were recorded. The tumor volume was calculated according to as the following equation. V=½×a×b^2 wherein, a and b are length and width, respectively. […]

[2] = tested on: QGY-7703 liver cancer cells; test: SRB assay Example 17, QGY-7703; type: cell-based; conditions: Homo sapiens, 72 h
Description: (§1) Protocol: the antineoplasmic activities in vitro of the compounds were assayed by a Sulforhodamine B (SRB) protocol. Tumor cells were cultivated at 37 under 5% CO2 in a RPMI 1640 medium or a DMEM medium (Gibco) containing 10% fetal bovine serum. Tumor cells were inoculated on a 96-well plate with a concentration of 0.4-1.0×10^4 cells per well according to the cell types. 24 hours later, the target compounds diluted 3 times were added, each compound having at least 9 concentrations. After treated by the compounds for 72 hours, the culture media were discarded, and the cells were fixed by 10% cold trichloroacetic acid, and then stained by Sulforhodamine B (SRB) solution. The uncombined SRB was washed off, and the SRB combined with protein was dissolved with Tris. OD values were recorded at 515 nm on an ELISA Reader, and the cell growth inhibition rate was calculated according to following equation: Inhibition rate=(ODcontrol−ODexperimental)/ODcontrol×100%
(§2) IC50 (50% inhibitory concentration) was calculated by using Logit method based on the inhibition rates at various concentration, and the results are shown in table 4.
(§3) Proliferation of turner cells was assayed by SRB protocol, drug action 72 h.

HepG2 liver cancer cells = test: SRB assay Example 17, HepG2; type: cell-based; conditions: Homo sapiens, 72 h
Description: as §1, §2, §3

[3] = tested on: SK-HEP-1 liver cancer cells; test: SRB assay Example 17, SK-HEP-1; type: cell-based; conditions: Homo sapiens, SK-HEP1, 72 h
Description: as §1, §2, §3

[4] = tested on: A2780 ovarian cancer cells; test: SRB assay Example 17, A2780; type: cell-based; conditions: Homo sapiens, 72 h
Description: as §1, §2, §3

[5] = tested on: CNE nasopharyngeal carcinoma cells; test: SRB assay Example 17, CNE; type: cell-based; conditions: Homo sapiens, 72 h
Description: as §1, §2, §3

[6] = tested on: Bel-7404 liver cancer cells; test: SRB assay Example 17, Bel-7404; type: cell-based; conditions: Homo sapiens, 72 h
Description: as §1, §2, §3

[7] = tested on: HUVEC normal human umbilical vein endothelial cells; test: SRB assay Example 17, HUVEC (20% FBS); type: cell-based; conditions: 72 h
Description: as §1, §2, §3

[8] = tested on: QSG-7701 liver cancer cells; test: SRB assay Example 17, QSG-7701; type: cell-based; conditions: Homo sapiens, QSG7701, 72 h
Description: as §1, §2, §3

[9] = tested on: SK-BR-3 breast carcinoma cells; test: SRB assay Example 17, SK-BR-3; type: cell-based; conditions: Homo sapiens, 72 h
Description: as §1, §2, §3

HUH-7 liver cancer cells = test: SRB assay Example 17, HUH-7; type: cell-based; conditions: Homo sapiens, 72 h
Description: as §1, §2, §3

Chang liver liver cell = test: SRB assay Example 17, Chang liver; type: cell-based; conditions: Homo sapiens, 72 h
Description: as §1, §2, §3

[10] = tested on: Bel-7402 liver cancer cells; test: SRB assay Example 17, Bel-7402; type: cell-based; conditions: Homo sapiens, drug action 72 h
Description: as §1, §2, §3

[11] = tested on: human liver cancer cells SMMC-7721 transplanted tumor; test: SMMC-7721 transplanted tumor on nude mice; type: in vivo; conditions: intragastrically once a day for 10 days
Description: Experimental procedure: BALB/cA nude mice, 6-7 weeks old, ♀, were purchased from Shanghai SLAC Laboratory Animal Co. LTD. Certificate No.: SCXK (Shanghai) 2007-0005. Habitat: SPF level. The compounds were diluted with 0.5% CMC containing 0.1% Tween-80 to a desired concentration. Human liver cancer cells SMMC-7721 were inoculated on nude mice subcutaneously. After the tumor grew up to 100-200 mm^3, animals were grouped randomly (d0). Mice were consecutively administered with compounds intragastrically once a day for 10 days. The tumor volume was measured 2-3 times each week and the weights of mice were recorded. The tumor volume (V) was calculated according to the following equation: V=½×a×b^2, wherein, a and b are length and width, respectively.

[12] = tested on: human hepatoma cell line Bel-7402; test: SRB proliferation assay, Bel-7402; type: cell-based; conditions: Homo sapiens, Bel-7402, 72 h, BEL-7402 cultivated in vitro, given as bounds, read-out: The Inhibition Activities for Human Liver Cancer Cells BEL-7402 (IC50)
Description: as §1, with “diluted 10” for “diluted 3”, “least 5” for “least 9”
IC50 (50% inhibitory concentration) was calculated by using Logit method based on the inhibition rates at various concentration, and the results are shown in tables 1 and 2.
The following cell lines were used: human hepatocarcinoma cell line […]; ovarian cancer cell line SK-OV-3; human breast cancer cell line MDA-MB-231; human renal carcinoma cell line A498; colon adenocarcinoma cell line HT-29; non-small cell lung cancer cell line NCI-H460; lung adenocarcinoma cell line A549; human colon cancer cell line SW-620; human hepatoma cell line Bel-7402; human breast carcinoma cell line SK-BR-3; and human umbilical vein endothelial cells (HUVEC).

[13] = tested on: HeLa cervical carcinoma cells; test: SRB assay Example 17, HeLa; type: cell-based; conditions: Homo sapiens, 72 h
Description: as §1, §2, §3

[14] = tested on: QGY-7701 liver cancer cells; test: SRB assay Example 17, QGY-7701; type: cell-based; conditions: Homo sapiens, QGY7701, 72 h
Description: as §1, §2, §3

3AO ovarian cancer cells = test: SRB assay Example 17, 3AO; type: cell-based; conditions: Homo sapiens, 72 h
Description: as §1, §2, §3

A549 lung cancer cells = test: SRB assay Example 17, A549; type: cell-based; conditions: Homo sapiens, 72 h
Description: as §1, §2, §3

Hep3B liver cancer cells = test: SRB assay Example 17, Hep3B; type: cell-based; conditions: Homo sapiens, 72 h
Description: as §1, §2, §3

[15] = tested on: SMMC-7721 liver cancer cells; test: SRB assay Example 17, SMMC-7721; type: cell-based; conditions: Homo sapiens, 72 h
Description: as §1, §2, §3

[16] = tested on: HCCC-9810 liver cancer cells; test: SRB assay Example 17, HCCC-9810; type: cell-based; conditions: Homo sapiens, HCCC9810, 72 h
Description: as §1, §2, §3

HL-7702 liver cell = test: SRB assay Example 17, HL-7702; type: cell-based; conditions: Homo sapiens, L02, 72 h
Description: as §1, §2, §3

[17] = tested on: MCF-7 breast carcinoma cells; test: SRB assay Example 17, MCF-7; type: cell-based; conditions: Homo sapiens, MCF7, 72 h
Description: as §1, §2, §3

H460 lung cancer cells = test: SRB assay Example 17, H460; type: cell-based; conditions: Homo sapiens, NCI-H460, 72 h
Description: as §1, §2, §3

[18] = 100 mg/kg, PO, QDx11, Bel-7402 on nude mice

`CN1CCN(c2ccc(-c3ccc(=O)[nH]n3)cc2C(F)(F)F)CC1` [YHHU-756] was tested, and the “Quantity of Animals Whose Tumors Vanished” value ([1]; 100 mg/kg, PO, QDx11, 5 animals per group) was 5, the “Inhibition Rate (%)” value [1, 18] was 100% and the “Tumor Volume (mm^3)” value [1, 18] was 294.6 mm^3. For the same compound, the “tumors vanished (animals/group)” value ([1]; at the 11th day, intragastrically once a day for 11 days) was 5/5, the recrudescence of tumors ([1]; at the end of the experiment (17th day)) was “no recrudescence was observed” and the “toxicity / survivability of mice” value ([1]; intragastrically once a day for 11 days, nude mice) was “no significant toxicity was observed”. It also gave an IC50 [2] of 20 nM, an IC50 (HepG2 liver cancer cells) of over 10000 nM and an IC50 [3] of over 10000 nM. It also gave an IC50 [4] of 30 nM, an IC50 [5] of 10 nM and an IC50 [6] of 410 nM. For the same compound, the IC50 [7] was 50 nM, the IC50 [8] was 20 nM and the IC50 [9] was 7100 nM. The IC50 (HUH-7 liver cancer cells) was over 10000 nM, the IC50 (Chang liver liver cell) was 20 nM and the IC50 [10] was 20 nM. The “survivability / weight loss of mice bearing cancer” value [11] was “no symptoms such as weight loss was observed”, the “growth of SMMC-7721 transplanted tumor” value ([11]; subcutaneous tumor on nude mice) was “caused part of the tumors vanished” and the IC50 [12] was under 10 nM. For the same compound, the IC50 [13] was 20 nM, the IC50 [14] was 20 nM and the IC50 (3AO ovarian cancer cells) was 20 nM. For the same compound, the IC50 (A549 lung cancer cells) was 13200 nM, the IC50 (Hep3B liver cancer cells) was over 10000 nM and the IC50 [15] was 10 nM. For the same compound, the IC50 [16] was over 10000 nM, the IC50 (HL-7702 liver cell) was 30 nM and the IC50 [17] was 12100 nM. The IC50 (H460 lung cancer cells) was 12900 nM.

— patent publication US9212146B2, “Substituted pyridazinones for the treatment of tumors” (SHANGHAI INSTITUTE OF MATERIA MEDICA, CHINESE ACADEMY OF …, priority 2008, dated 2015)
